The nature of data set [1]: Clinical pharmacokinetic study, plasma and urine, noncompartmental analysis. To be noted: for tmax: median [range].
A further data set in a line: clinical. The following applies: both, human, in vivo, AUC0–12.5h, Observed.
For data set [2], the system named is CYP3A. To be noted: HLMs, 2020, cited from earlier work.
A short description of data set [3]: Time-dependent inhibition of midazolam 1’-hydroxylation in HIMs. The following applies: microsomal incubation mixture, 37 °C, aqueous buffer, kinetic from dmso stock.
The test system of data set [4] is CYP3A. The data set is described as above. The following applies: HIMs.
The conditions of data set [5]: both, human, in vivo.
Data set [6] is described as follows: Dissolution of goldenseal capsules in FaSSIF. In kind it is physicochemical. The following applies: two goldenseal capsules in 250 ml FaSSIF, within 20 minutes.
Data set [7] is described as follows: Apparent permeability, apical to basolateral, Caco-2 cell monolayers. In kind it is in vitro ADME. The following applies: human. For orientation: Caco-2 monolayers are a common model of the intestinal barrier.
In data set [8] the test system is CYP3A. Description: IC50 shift experiment, midazolam 1’-hydroxylation in human intestinal microsomes.
In data set [9] the test system is CYP3A. As to the kind of experiment: Allosterism of midazolam hydroxylation in HIMs by berberine. The following applies: for effect on 1’-hydroxymidazolam formation: reversible design.
Data set [10] relates to CYP3A. The following applies: cited from earlier work.
The conditions of data set [11]: Baseline: oral midazolam 2.5 mg alone; median [range]; ref Nguyen et al., 2021; cited from earlier work.
The mark [12] stands for this setting: Baseline: oral midazolam 2.5 mg alone, geometric mean [90% CI].
The mark [13] stands for this setting: 6-hour blood collection, ref Gurley et al., 2008.

Data on four compounds can be found in publication PMC10658920 (The Journal of Pharmacology and Experimental Therapeutics, 2023).

SMILES strings stand for the structures. Where “and” joins values, the source holds several entries; their conditions need not be identical. Equal entries are not always repeated. Entries after “also recorded” stand apart in the source; their conditions may differ. Where two headings read alike, the source gives them in different places.

`COc1ccc2cc3[n+](cc2c1OC)CCc1cc2c(cc1-3)OCO2` [berberine]: the AUC(0-inf) – broadly, total exposure, with the tail of the curve extrapolated – in data set [1] (both, human, plasma, oral) is 46.7 nM·h. In addition, the AUC(0-t) (as a rule, exposure summed from dosing to a finite time, without extrapolation to infinity) in “clinical” came out at 4.58 nM·h. In addition, in the data set on CYP3A [2] (ref Chatterjee and Franklin, 2003, McDonald et al.), the “TDI of CYP3A activity (midazolam 1’-hydroxylation), in words” value is reported as “demonstrated TDI”. For the same compound, in the data set on CYP3A [2] (ref McDonald et al.), the “IC50 (reversible inhibition)” value is on record as “unattainable” and the second-order inactivation constant (kinact/KI) – broadly, the second-order rate constant of inactivation – is 21.7 M⁻¹ s⁻¹. For the same compound, in data set [3], the solubility – broadly, the dissolved amount per volume that the medium holds – was not above 500 µM. Moreover, in the data set on CYP3A [4], the “inhibition of midazolam 1’-hydroxylation (in words)” value is “concentration-dependent and time-dependent inhibition”; the kinact/KI is 4.07 M⁻¹ s⁻¹ and ~4 M⁻¹ s⁻¹. Also, the KI at CYP3A [4] (time-dependent inhibition of midazolam 1’-hydroxylation) is > 250 µM and 250 µM. Besides, the kinact (commonly the rate constant of inactivation at saturating inhibitor) in the data set with CYP3A [4] (human, human intestinal microsomes, probe midazolam (40 μM), 1'-hydroxylation, kinact, time-dependent inhibition of midazolam 1’-hydroxylation) is approximately 0.001 s⁻¹. The “AUC0–12.5h, Observed” value in data set [5] was 7.81 [6.17–9.89] nM*h. Besides, in data set [6], the total content dissolved entry is recorded as “More than 80%”. Moreover, the apparent permeability coefficient (Papp) (usually the rate of passage across a membrane or cell layer, normalised by area and donor concentration) at 10 μM in [7] is 0.18 ×10⁻⁶ cm/s. In addition, the “leftward shift in IC50 after preincubation with NADPH” value in the data set on CYP3A [8] (HIMs) was “not observed”. In the data set with CYP3A [8] (HIMs 0.05 mg/ml, 30 min preincubation in absence of NADPH, 4 μM midazolam), the “IC50, midazolam 1’-hydroxylation” value is on record as “apparent activation; also recorded: unattainable”. In addition, in the data set with CYP3A [9] (berberine 5–100 μM), the “effect on midazolam 4-hydroxylation” value is “inhibited”. Moreover, the “effect on 1’-hydroxymidazolam/4-hydroxymidazolam ratio” value in the data set on CYP3A [9] (particularly at midazolam ≤5 μM) is “concentration-dependent increase”. Moreover, the “effect on 1’-hydroxymidazolam formation” value in the data set with CYP3A [9] (midazolam ≤5 μM) is reported as “activated”. Moreover, the “effect on 1’-hydroxymidazolam formation” value with CYP3A [9] (midazolam ≥50 μM) is on record as “inhibited”. In the data set with CYP3A [10] (berberine 300 mg thrice daily × 14 days, ref Guo et al., 2012), the “increase in midazolam AUC” value is on record as 40%.

For the compound `Cc1ncc2n1-c1ccc(Cl)cc1C(c1ccccc1F)=NC2O` (centres unmarked) [4-Hydroxymidazolam, 4-hydroxymidazolam], in data set [1] (setting [12]), the CLR result is “Concentrations of metabolites in urine were below the detectable limit” and the “MP ratio (metabolite AUC0–12h to midazolam AUC0–12h)” value was 0.045 [0.039–0.051]. For the same compound, in data set [1] (both, human, plasma, po, 2.5 mg, AUC0–12h, Baseline: oral midazolam 2.5 mg alone, geometric mean [90% CI]), the AUC(0-t) was 2.78 nM·h. Also, the half-life (usually how long it takes for the measured level to halve) in [1] (both, human, plasma, po, 2.5 mg, t1/2, Baseline: oral midazolam 2.5 mg alone, geometric mean [90% CI]) was 1.68 h. The compound also registered a tmax in [1] (both, human, plasma, po, 2.5 mg, tmax, Baseline: oral midazolam 2.5 mg alone) of 1 h. The tmax in [1] (both, human, plasma, po, tmax, Chronic exposure: goldenseal 1 g thrice daily for 6 days, midazolam 2.5 mg oral) worked out at 1 h.

In data set [1] (both, human, plasma and urine, po), `Cc1ncc2n1-c1ccc(Cl)cc1C(c1ccccc1F)=NC2` [Midazolam] gave a CL renal of 1.08 mL/min. Moreover, in the data set with CYP3A [10] (setting [13]), the “midazolam half-life at baseline” value was 2.0 h and the “midazolam half-life in the presence of goldenseal” value is 3.1 h. The tmax in data set [11] is 0.67 [0.33–1.00] h.

Turning to `OCc1ncc2n1-c1ccc(Cl)cc1C(c1ccccc1F)=NC2` [1’-Hydroxymidazolam, 1’-hydroxymidazolam], in data set [1] (setting [12]), the “AUC0–12h” value is 29.0 [24.4–34.4] nM*h; the AUCinf was 33.1 [27.9–39.0] nM*h; the CLR is 0.17 [0.14–0.20] n = 15 l/h; the Cmax – broadly, the maximum level reached in the sampled fluid or tissue – is 12.3 nM. In data set [1] (setting [12]), the “MP ratio (metabolite AUC0–12h to midazolam AUC0–12h)” value is 0.47 [0.40–0.54] and the t1/2 is 6.25 [5.27–7.40] h. For the same compound, the tmax in data set [1] (Baseline: oral midazolam 2.5 mg alone) was 0.67 [0.33–1.00] h. The tmax in data set [1] (Chronic exposure: goldenseal 1 g thrice daily for 6 days, midazolam 2.5 mg oral) was 0.67 [0.33–1.50] h.
